Assay results from ChEMBL document CHEMBL1201862, “PubChem BioAssay data set” (2004).
Active and inactive are the calls of the source.

Experiments:
[1] = target: T1, Delta-type opioid receptor (Homo sapiens, UniProt P41143); assay: HTS Image-Based Screen for Antagonists of the DOR Receptor. [Related pubchem assays (depositor defined):AID1777, AID1785, AID1786, AID2133]; format: functional
[2] = target: Mu-type opioid receptor (Homo sapiens, UniProt P35372); assay: HTS Image-Based Screen for Agonists of the MOR Receptor. [Related pubchem assays (depositor defined):AID1777, AID1785, AID1786, AID2133]; format: functional;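 also: imaging of beta-arrestin GFP recruitment into spots after receptor activation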
[3] = target: E3 ubiquitin-protein ligase Mdm2 (Homo sapiens, UniProt Q00987); assay: enhancers of MDM2-luciferase reporter signal, concentration-effect titration, project on inhibitors of MDM2 ubiquitin ligase, cellular assay, luminescent readout, 384-well plate format (AID 1394); format: functional;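 also: MDM2 E3 inhibitors raise luminescence so EC50 is for signal enhancement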
[4] = system: Streptococcus sp. 'group A'; assay: growth inhibition of control SK(-) GAS strain, dose response, counter-screen for streptokinase expression inhibitor project, luminescence, kanamycin, BacTiterGlo, confirmation (AID 1900); format: functional, organism-based
[5] = target: T1, Delta-type opioid receptor; assay: HTS Image-Based Screen for Agonists of the DOR Receptor. [Related pubchem assays (depositor defined):AID1777, AID1786, AID2133]; format: functional
[6] = target: T2, Beta-galactosidase (Escherichia coli, UniProt Q8VNN2); assay: PubChem AID 485352; format: functional
[7] = inhibitors of intracellular T. cruzi replication, confirmation, NIH3T3 host cells, beta-gal luminescence (AID 2044); format: functional, cell-based;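 also: intracellular parasites grown in NIH/3T3 mouse fibroblasts as host cells; luminescent beta-galactosidase reporter signal from transgenic T. cruzi replicating inside host cells; inhibitors lower the luminescence signal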
[8] = target: T3, Type-1 angiotensin II receptor (Homo sapiens, UniProt P30556); assay: AT1 receptor antagonists, dose response, selectivity assay for APJ receptor antagonist project, cell-based, uHTS hits (AID 463214); format: functional;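 also: antagonist potency against angiotensin II stimulated AT1 response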
T3 sequence (P30556 whole entry): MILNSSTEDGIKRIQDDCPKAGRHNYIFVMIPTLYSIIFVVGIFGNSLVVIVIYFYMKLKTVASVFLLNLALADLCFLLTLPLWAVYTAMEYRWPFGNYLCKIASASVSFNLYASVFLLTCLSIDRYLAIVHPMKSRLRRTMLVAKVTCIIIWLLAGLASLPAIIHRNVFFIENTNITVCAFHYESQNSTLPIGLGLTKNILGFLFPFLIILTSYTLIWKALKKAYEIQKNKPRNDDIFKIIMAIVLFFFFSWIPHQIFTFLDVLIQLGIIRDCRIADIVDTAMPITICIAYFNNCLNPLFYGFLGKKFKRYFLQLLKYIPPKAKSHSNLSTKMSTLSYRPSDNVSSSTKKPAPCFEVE

[9] = target: T4, Kappa-type opioid receptor (Homo sapiens, UniProt P41145); format: functional
[10] = cytotoxicity toward NIH3T3 fibroblasts, dose response, counter-screen, cell-based, ATP luminescence, mouse fibroblasts (AID 2010); format: functional;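 also: cells exposed to compound for about 90 hours before reading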
[11] = target: T2, Beta-galactosidase; format: functional
[12] = target: T4, Kappa-type opioid receptor; format: functional; remark: listed apart in the source
[13] = system: Streptococcus; assay: Group A Streptococcus viability loss, dose response, counter-screen for streptokinase expression inhibitor project, luminescence, BacTiterGlo (AID 1915); format: functional, organism-based;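 also: potency for reduction of bacterial viability or growth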
[14] = target: T5, Ubiquitin-conjugating enzyme E2 N (Homo sapiens, UniProt P61088); format: functional;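 also: Dose-response confirmation in a TR-FRET assay detecting UBC13-driven polyubiquitin chain formation, inhibition measured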
T5 sequence (P61088 whole entry): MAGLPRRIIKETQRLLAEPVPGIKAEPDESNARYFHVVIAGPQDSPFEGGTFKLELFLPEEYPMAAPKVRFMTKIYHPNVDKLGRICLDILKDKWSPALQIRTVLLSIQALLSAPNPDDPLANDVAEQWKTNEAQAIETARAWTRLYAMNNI

[15] = target: Nonstructural protein 1 (Influenza A virus, UniProt Q194T2); format: functional, Influenza A virus (A/California/07/2009(H1N1))
[16] = target: T6, Heat shock factor protein 1 (Mus musculus, UniProt P38532); assay: HSF1 potentiators in luciferase reporter cells, confirmation, cell-based, NIH3T3, luminescence, dose retest (AID 435004); format: functional;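 also: stress induced by proteasome inhibitor MG132 added 30 min after compound; luciferase reporter driven by HSF1 response element in NIH3T3 cells; actives raise luminescence as potentiators of the MG132 stress response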
T6 sequence (P38532 whole entry): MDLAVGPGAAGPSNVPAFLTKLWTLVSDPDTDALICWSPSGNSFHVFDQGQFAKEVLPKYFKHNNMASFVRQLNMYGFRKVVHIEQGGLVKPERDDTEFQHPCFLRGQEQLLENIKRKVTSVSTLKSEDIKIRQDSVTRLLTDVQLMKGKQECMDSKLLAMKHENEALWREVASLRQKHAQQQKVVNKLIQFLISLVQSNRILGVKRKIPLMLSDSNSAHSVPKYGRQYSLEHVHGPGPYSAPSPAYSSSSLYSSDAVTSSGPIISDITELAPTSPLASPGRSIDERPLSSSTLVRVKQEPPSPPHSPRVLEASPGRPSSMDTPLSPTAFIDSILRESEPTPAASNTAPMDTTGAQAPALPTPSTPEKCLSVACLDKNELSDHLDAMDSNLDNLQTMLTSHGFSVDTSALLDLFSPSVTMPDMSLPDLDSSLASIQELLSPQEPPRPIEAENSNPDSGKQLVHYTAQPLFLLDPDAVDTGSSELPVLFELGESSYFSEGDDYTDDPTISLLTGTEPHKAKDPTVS

[17] = AlphaScreen signal interference compounds, dose response, artefact control for ARNT-TACC3 interaction inhibitor project, biochemical, luminescence, cherry-pick (AID 651705); format: functional;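 also: AlphaScreen bead proximity signal that flags compounds interfering with the detection technology; potency reflects signal decrease which marks the compound as an assay artifact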
[18] = Luminescence Cell-Based Dose Confirmation HTS to Identify Inhibitors of Polyadenylation.; format: functional
[19] = target: Exodeoxyribonuclease V (Escherichia coli (strain K12), UniProt P04993+P07648+P08394); assay: E. coli RecBCD inhibitors, dose response, counter-screen for AddAB inhibitor project, absorbance, V66 E. coli, mutant T4 phage (AID 492957); format: functional, cell-based, Escherichia coli str. K-12 substr. MG1655
[20] = target: Intestinal-type alkaline phosphatase (Mus musculus, UniProt P24822); assay: PubChem AID 488785; format: functional
[21] = target: FAD-linked sulfhydryl oxidase ALR (Homo sapiens, UniProt P55789); assay: inhibitors of human ALR sulfhydryl oxidase, dose response, biochemical, H2O2 detection, luminescence, cherry-pick (AID 493248)
[22] = target: T7, Alkaline phosphatase, tissue-nonspecific isozyme (Homo sapiens, UniProt P05186); assay: TNAP enzyme inhibition by screening hits, dose response, selectivity assay for mouse IAP inhibitor project, biochemical, human TNAP, uHTS hits (AID 488906); format: functional
T7 sequence (P05186 whole entry): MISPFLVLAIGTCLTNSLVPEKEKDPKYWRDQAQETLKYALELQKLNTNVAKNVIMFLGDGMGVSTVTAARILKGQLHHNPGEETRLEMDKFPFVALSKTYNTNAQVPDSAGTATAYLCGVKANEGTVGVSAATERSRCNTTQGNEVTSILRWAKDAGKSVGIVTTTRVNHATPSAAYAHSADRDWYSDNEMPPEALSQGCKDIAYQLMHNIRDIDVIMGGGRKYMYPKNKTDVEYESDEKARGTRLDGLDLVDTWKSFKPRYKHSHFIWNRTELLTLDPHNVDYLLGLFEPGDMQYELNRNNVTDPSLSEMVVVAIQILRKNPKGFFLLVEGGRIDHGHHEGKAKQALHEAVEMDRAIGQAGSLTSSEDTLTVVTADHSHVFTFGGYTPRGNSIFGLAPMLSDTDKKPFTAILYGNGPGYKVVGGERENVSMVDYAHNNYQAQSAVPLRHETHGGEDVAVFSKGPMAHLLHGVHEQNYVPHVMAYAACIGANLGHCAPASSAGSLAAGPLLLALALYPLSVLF

[23] = Counterscreen for AddAB inhibitors: absorbance-based bacterial cell-based high throughput dose response assay for inhibitors of bacterial viability. [Related pubchem assays (depositor defined):AID435030, AID449728, AID449731, AID488942, AID488955, AID488956]; format: functional
[24] = target: Intestinal-type alkaline phosphatase (Homo sapiens, UniProt P09923); assay: inhibition of human intestinal alkaline phosphatase – biochemical, dose response (AID 488876); format: functional
[25] = target: T8, Apoptotic protease-activating factor 1 (Homo sapiens, UniProt O14727); format: functional
T8 sequence (O14727 whole entry): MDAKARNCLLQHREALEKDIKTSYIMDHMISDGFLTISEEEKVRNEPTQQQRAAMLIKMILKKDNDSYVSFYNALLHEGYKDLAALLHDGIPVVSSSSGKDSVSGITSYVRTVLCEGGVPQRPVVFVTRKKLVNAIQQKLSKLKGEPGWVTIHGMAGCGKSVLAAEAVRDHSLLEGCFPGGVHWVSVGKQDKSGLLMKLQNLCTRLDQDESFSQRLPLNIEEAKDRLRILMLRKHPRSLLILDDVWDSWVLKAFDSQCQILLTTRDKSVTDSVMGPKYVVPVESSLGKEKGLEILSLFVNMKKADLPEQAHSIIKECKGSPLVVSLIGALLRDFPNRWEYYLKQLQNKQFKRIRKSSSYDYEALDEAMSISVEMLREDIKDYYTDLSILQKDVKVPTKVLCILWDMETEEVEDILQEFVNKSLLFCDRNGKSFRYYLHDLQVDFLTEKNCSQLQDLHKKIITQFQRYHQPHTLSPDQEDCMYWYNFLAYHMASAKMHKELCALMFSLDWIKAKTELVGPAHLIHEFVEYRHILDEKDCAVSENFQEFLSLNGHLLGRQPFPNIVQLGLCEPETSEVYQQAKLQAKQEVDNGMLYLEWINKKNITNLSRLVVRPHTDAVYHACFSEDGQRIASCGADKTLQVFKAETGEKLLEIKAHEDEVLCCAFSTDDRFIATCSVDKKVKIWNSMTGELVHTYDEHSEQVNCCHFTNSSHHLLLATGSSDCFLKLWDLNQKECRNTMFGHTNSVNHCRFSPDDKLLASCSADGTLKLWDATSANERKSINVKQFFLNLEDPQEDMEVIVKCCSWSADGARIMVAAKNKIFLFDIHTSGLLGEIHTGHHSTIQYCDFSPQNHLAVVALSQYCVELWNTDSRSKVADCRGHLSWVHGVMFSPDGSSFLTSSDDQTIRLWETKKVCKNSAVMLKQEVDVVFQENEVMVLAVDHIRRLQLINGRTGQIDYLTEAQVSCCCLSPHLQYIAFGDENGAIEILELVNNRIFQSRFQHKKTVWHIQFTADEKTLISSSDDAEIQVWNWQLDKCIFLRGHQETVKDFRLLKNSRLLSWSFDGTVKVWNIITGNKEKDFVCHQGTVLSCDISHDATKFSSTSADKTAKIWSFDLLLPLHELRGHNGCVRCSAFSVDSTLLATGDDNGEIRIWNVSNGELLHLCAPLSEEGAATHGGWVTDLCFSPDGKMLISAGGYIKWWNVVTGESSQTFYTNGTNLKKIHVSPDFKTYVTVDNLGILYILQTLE

[26] = HeLa 2N DNA content increase, dose response, cell-based, IC50 (AID 1117349); format: functional
[27] = Concentration-dependent survival of SW480 colon cancer line, luminescence detection with CellTiter-Glo, half-maximal inhibitory concentration (AID 1117338); format: functional
[28] = RKO cell viability reduction, dose response, CellTiter-Glo luminescence (AID 1117322); format: functional
[29] = cytotoxicity toward HCT116 cells – cell-based, CellTiter-Glo luminescence, IC50, dose response (AID 1117332); format: functional; conditions: HCT-116
[30] = SNU-C1 cell viability reduction, dose response, CellTiter-Glo luminescence (AID 1117323); format: functional, cell-based
[31] = cytotoxicity toward Colo320 cells – cell-based, CellTiter-Glo luminescence, IC50, dose response (AID 1117334); format: functional; conditions: COLO 320
[32] = HeLa 4N DNA content increase, dose response, cell-based, IC50 (AID 1117351); format: functional
[33] = cytotoxicity toward HT-29 cells – cell-based, CellTiter-Glo luminescence, IC50, dose response (AID 1117330); format: functional
[34] = CellTiter-Glo luminescent dose response of DLD-1 viability loss (AID 1117352); format: functional
[35] = HCT116 cell viability decrease, GSK3B pretreatment – CellTiter-Glo, IC50, dose response (AID 1117339); format: functional; conditions: HCT-116

T2 sequence (Q8VNN2 whole entry): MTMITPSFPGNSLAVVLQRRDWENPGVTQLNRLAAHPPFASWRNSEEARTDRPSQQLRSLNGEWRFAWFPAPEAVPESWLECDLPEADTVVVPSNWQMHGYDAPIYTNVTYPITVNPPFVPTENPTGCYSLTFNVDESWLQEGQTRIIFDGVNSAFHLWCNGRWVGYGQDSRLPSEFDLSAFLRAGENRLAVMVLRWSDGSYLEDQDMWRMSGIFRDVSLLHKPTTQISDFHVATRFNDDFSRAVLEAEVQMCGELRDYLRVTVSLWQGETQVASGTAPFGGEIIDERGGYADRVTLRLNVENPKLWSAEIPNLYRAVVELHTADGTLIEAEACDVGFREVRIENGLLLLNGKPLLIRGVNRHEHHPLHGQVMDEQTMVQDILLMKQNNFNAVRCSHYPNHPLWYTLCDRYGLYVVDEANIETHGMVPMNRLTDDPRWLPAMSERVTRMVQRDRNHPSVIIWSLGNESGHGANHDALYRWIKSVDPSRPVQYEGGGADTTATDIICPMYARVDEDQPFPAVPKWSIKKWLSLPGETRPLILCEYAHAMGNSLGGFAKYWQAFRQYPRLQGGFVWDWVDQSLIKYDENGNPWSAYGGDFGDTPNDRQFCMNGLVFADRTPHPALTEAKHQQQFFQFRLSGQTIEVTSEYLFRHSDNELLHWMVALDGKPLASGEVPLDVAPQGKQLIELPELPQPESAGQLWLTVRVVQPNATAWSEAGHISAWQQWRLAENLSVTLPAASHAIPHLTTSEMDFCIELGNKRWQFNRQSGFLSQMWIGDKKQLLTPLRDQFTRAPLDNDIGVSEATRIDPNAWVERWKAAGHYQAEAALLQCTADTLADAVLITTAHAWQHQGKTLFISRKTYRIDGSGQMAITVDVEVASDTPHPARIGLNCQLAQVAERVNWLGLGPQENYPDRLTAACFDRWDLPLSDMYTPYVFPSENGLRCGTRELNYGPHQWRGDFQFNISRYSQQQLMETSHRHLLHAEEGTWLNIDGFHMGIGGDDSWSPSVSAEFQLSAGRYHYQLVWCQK
T1 sequence (P41143 whole entry): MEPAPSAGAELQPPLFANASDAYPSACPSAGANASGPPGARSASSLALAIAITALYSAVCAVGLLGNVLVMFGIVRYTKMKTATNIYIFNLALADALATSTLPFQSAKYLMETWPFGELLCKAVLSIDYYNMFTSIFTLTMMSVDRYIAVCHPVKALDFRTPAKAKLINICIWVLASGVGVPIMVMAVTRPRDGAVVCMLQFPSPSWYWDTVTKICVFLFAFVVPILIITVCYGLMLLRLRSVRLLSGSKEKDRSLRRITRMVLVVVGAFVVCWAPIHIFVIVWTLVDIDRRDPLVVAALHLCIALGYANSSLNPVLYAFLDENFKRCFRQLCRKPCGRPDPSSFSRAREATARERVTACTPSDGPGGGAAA
Chain of Nonstructural protein 1 (Q194T2 whole entry): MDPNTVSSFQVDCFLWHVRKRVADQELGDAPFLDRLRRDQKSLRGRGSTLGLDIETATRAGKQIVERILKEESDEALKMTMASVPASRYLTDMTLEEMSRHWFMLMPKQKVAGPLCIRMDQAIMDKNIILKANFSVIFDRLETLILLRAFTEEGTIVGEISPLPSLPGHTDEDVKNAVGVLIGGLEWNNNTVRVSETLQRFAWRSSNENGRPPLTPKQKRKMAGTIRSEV
T4 sequence (P41145 whole entry): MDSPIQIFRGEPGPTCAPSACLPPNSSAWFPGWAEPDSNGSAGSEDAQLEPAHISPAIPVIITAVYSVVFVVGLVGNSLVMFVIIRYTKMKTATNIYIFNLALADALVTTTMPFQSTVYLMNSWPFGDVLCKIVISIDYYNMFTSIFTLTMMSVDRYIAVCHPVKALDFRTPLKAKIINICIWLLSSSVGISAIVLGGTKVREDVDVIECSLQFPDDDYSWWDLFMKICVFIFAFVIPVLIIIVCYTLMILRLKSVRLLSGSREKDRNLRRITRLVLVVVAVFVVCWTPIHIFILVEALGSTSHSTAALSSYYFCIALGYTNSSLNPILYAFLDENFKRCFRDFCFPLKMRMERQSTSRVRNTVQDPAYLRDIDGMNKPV
Chain of Exodeoxyribonuclease V (P04993 whole entry): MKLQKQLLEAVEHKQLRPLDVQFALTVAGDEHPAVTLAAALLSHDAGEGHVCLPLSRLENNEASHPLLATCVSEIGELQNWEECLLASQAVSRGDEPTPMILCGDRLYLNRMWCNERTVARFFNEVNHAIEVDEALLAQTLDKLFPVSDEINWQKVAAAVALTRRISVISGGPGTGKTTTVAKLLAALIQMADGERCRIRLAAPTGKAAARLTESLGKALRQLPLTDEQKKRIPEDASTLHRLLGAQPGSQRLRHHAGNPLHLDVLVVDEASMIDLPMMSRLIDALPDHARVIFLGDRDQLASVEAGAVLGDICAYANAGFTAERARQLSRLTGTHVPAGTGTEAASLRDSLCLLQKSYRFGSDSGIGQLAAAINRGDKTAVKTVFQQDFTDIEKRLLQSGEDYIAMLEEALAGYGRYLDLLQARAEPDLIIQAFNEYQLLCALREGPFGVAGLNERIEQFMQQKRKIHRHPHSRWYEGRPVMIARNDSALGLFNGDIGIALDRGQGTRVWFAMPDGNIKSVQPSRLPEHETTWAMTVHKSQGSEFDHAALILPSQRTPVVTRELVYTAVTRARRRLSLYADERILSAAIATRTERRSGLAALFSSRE
Chain of Exodeoxyribonuclease V (P07648 whole entry): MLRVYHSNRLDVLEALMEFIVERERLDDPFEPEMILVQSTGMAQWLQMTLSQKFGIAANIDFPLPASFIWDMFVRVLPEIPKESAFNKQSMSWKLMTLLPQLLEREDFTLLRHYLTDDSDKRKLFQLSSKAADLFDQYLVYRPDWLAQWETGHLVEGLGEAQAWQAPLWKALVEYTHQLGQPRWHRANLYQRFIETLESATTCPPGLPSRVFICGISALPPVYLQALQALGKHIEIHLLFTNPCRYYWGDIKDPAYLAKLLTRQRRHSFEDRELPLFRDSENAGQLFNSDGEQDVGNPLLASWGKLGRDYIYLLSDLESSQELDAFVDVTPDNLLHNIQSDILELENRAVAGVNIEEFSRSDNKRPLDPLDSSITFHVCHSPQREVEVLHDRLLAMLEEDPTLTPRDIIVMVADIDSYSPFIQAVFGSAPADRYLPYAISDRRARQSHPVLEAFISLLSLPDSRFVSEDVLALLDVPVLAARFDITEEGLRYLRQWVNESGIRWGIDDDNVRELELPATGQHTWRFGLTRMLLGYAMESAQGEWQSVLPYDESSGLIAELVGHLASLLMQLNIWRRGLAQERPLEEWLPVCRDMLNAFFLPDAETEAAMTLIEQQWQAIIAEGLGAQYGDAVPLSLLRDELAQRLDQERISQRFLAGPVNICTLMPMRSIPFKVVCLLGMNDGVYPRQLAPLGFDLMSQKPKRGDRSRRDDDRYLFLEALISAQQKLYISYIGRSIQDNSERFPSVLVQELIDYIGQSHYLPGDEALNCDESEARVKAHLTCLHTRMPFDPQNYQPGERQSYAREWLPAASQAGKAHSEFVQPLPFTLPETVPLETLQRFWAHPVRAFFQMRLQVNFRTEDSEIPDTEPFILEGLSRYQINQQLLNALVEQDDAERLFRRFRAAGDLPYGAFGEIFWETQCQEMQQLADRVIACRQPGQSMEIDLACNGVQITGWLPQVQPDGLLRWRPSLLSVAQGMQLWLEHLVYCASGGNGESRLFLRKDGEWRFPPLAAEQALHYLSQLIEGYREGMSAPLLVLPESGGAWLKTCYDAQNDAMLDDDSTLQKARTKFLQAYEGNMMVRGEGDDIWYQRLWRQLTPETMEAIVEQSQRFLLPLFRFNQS
Chain of Exodeoxyribonuclease V (P08394 whole entry): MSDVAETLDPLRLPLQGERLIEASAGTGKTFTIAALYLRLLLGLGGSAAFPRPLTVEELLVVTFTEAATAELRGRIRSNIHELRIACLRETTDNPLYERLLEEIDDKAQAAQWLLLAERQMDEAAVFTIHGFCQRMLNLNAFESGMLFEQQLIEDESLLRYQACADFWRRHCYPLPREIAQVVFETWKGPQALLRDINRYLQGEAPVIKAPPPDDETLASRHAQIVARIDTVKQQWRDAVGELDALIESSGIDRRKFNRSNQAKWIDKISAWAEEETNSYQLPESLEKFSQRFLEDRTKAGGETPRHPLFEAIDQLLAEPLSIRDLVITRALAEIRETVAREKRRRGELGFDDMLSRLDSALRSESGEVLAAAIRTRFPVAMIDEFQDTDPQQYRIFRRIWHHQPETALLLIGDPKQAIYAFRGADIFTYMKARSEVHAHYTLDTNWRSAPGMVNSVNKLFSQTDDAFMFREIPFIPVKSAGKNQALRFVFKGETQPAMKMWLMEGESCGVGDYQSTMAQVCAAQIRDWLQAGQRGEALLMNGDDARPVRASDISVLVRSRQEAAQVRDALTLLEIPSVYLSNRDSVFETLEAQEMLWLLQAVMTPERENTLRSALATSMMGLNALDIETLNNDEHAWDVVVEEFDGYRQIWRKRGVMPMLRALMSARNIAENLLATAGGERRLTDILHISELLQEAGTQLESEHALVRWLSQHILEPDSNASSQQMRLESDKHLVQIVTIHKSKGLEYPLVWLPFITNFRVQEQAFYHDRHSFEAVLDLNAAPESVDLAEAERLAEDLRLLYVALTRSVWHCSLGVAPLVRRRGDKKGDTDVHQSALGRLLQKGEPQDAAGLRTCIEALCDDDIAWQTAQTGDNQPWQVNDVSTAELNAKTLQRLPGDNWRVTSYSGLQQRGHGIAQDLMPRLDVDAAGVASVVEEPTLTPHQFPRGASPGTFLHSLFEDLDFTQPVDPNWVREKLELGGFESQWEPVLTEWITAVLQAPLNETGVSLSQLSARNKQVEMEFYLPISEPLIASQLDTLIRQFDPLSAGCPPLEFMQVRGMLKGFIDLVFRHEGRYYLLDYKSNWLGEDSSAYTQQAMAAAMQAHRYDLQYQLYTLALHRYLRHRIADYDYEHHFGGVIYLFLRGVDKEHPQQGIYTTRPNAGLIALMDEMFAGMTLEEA

For `COCc1cc(O)nc(Nc2nc3ccc(C)cc3o2)n1`, the IC50 [1] was > 32 µM (inactive), the EC50 [2] was > 32 µM (inactive) and the EC50 [3] was 0.56 µM (active). For the same molecule, the EC50 [4] was 2.11 µM (active), the EC50 [5] was > 32 µM (inactive) and the EC50 [6] was > 40 µM (inactive). For the same molecule, the EC50 [7] was 1.87 µM (active), the IC50 [8] was 6.83 µM (active) and the IC50 [9] was 7.12 µM (active). The EC50 [10] was 4.89 µM (active), the EC50 [11] was > 31.5 µM (inactive) and the IC50 [12] was greater than 32 µM. The EC50 [13] was 7.89 µM (active), the IC50 [14] was > 20 µM (inactive) and the IC50 [15] was 16.1 µM (active). For the same molecule, the EC50 [16] was 11.1 µM (active) and the AC50 [17] was 103 µM (active).

For `CCN1/C(=C/C=C/c2sc3ccccc3[n+]2CC)Sc2ccccc21`, the EC50 [4] was 2.54 µM (active), the EC50 [18] was 11.1 µM (active) and the EC50 [13] was 3 µM (active). The IC50 [19] was 80.9 µM (inactive), the IC50 [20] was 1.55 µM (active) and the IC50 [15] was 9.73 µM (active). For the same molecule, the AC50 [21] was 0.522 µM (active), the IC50 [22] was 74.8 µM (active) and the IC50 [23] was 99.5 µM (inactive). The IC50 [24] was > 100 µM (inactive), the IC50 [25] was 20.8 µM (active) and the IC50 [26] was 8.51 µM (inactive). For the same molecule, the IC50 [27] was 0.172 µM (active), the IC50 [28] was 0.00898 µM (active) and the IC50 [29] was 0.00957 µM (active). The IC50 [30] was 0.0172 µM (active), the IC50 [31] was 0.562 µM (active) and the IC50 [32] was > 10 µM (inactive). The IC50 [33] was 0.00838 µM (active), the IC50 [34] was 0.0148 µM (active) and the IC50 [35] was 0.00875 µM (active).
